Data as given in patent US20230278987A1, “Antimicrobial Compounds and Methods” (Curza Global, LLC, priority 2019, published 2023).
In brackets after ≈: the same amount, converted by molar mass. Counter-ions that a name gives are not always drawn. Like-named read-outs stand apart in the source and are kept apart here.

Tests used:
[1] = test system: E.coli S30 extract (bacterial protein synthesis); experiment: E.coli S30 extract: inhibition of bacterial protein synthesis (luciferase); assay type: biochemical; details: 37° C. for 1 hour
Procedure: E.coli S30 extract: Inhibition of bacterial protein synthesis was determined using the E.coli S30 Extract System for Circular DNA (Promega catalog #L-2010) and Luciferase Assay Reagent (Promega catalog #E1500) with slight modifications to a published protocol. Fyfe, C., Sutcliffe, J.A. and Grossman, T.H. (2012) “Development and characterization of a Pseudomonas aeruginosa in vitro coupled transcription-translation assay system for evaluation of translation inhibitors” J. Microbiol. Methods 90(3), 256-261.
Compounds were serial diluted in 0.5 mL microcentrifuge tubes by mixing and transferring 50 µL from the highest concentration to 50 µL of water, mixing and transferring 50 µL of this 2-fold dilution to 50 µL of water. This mixing and transferring was repeated so that there are a total of 8 tubes with serial dilutions of compound at 10× the desired screening concentration that are ultimately diluted to 1× by the addition of S30 luciferase synthesis mixture. Serial dilutions of compounds were added (2 µL) to wells in a black round bottom 96-well plate. Water (2 µL) was used as a “no inhibitor” control in 4 wells/plate. No DNA control reaction mixture (20 µL; see below) was used as a control in 4 wells/plate for background luminescence. S30 luciferase synthesis mixture (18 µL; see below) was added to wells with compounds or water mixture and incubated at 37° C. for 1 hour. Reactions were stopped by transferring to 4° C. refrigerator for 5 minutes then 25 µL of luciferase activity mix was added. Luminescence was measured using a BioTek Synergy HTX plate reader. % Inhibition was determined relative to no inhibitor controls.
S30 luciferase synthesis mixture: • 445 µL S30 extract, circular • 712 µL S30 Premix without amino acids • 4.45 µL pBESTluc™ DNA (1 µg/ µL) • 78 µL complete amino acid mixture • 267 µL water
No DNA control: • 20 µL S30 extract, circular • 32 µL S30 Premix without amino acids • 7 µL complete amino acid mixture • 21 µL water

[2] = molecular target: Rabbit Reticulocyte Lysate (eukaryotic protein synthesis); experiment: Rabbit Reticulocyte Lysate: inhibition of eukaryotic protein synthesis (luciferase); assay type: biochemical; details: 30° C. for 90 minutes, read-out: retic. IC50
Procedure: Inhibition of eukaryotic protein synthesis was determined using the Rabbit Reticulocyte Lysate System, Nuclease-Treated from Promega (catalog #L-4960) with slight modifications to the manufacturer’s protocol. Compounds were serial diluted in 0.5 mL microcentrifuge tubes by mixing and transferring 50 µL from the highest concentration to 50 µL of water, mixing and transferring 50 µL of this 2-fold dilution to 50 µL of water. This mixing and transferring was repeated so that there are a total of 8 tubes with serial dilutions of compound at 10× the desired screening concentration that are ultimately diluted to 1× by the addition of rabbit reticulocyte luciferase synthesis mixture. Serial dilutions of compounds were added (2.5 µL) to wells in a black round bottom 96-well plate. Water (2.5 µL) was used as a “no inhibitor” control in 4 wells/plate. No RNA control reaction mixture (2 µL; see below) was used as a control in 4 wells/plate for background luminescence. Rabbit reticulocyte luciferase synthesis mixture (22.5 µL; see below) was added to wells with compounds or water mixture and incubated at 30° C. for 90 minutes. Luciferase assay reagent (25 µL) was added with luminescence measured using a BioTek Synergy HTX plate reader. % Inhibition was determined relative to no inhibitor controls.
Rabbit reticulocyte luciferase synthesis mixture: • 1,000 µL rabbit reticulocyte lysate • 5.7 µL Luciferase Control RNA (1 µg/ µL) • 26 µL complete amino acid mixture • 395 µL water
No RNA Control • 70 µL rabbit reticulocyte lysate • 2 µL complete amino acid mixture • 28 µL water

[3] = test system: P.aeruginosa (Pa); experiment: Broth microdilution MIC against P.aeruginosa (Pa); assay type: cell-based; details: Pseudomonas aeruginosa
Procedure: (§1) A certified BSL-2 laboratory was used for testing. Compounds were evaluated using the broth microdilution minimum inhibitory concentration (MIC) and minimum bactericidal concentration (MBC) assays defined by Clinical and Laboratory Standards Institute (CLSI) in the M26-A guideline against S.aureus (Sa), E.coli (Ec), K.pneumoniae (Kp), A.baumannii (Ab), E.faecalis (Ef) and P.aeruginosa (Pa).
(§2) MICs were determined using the Clinical Laboratory and Standards Institute (CLSI) Broth Microdilution Method with slight modification. Clinical and Laboratory Standards Institute (2012). “Methods for dilution antimicrobial susceptibility tests for bacteria that grow aerobically; approved standard, 9th ed. M07-A9. Clinical and Laboratory Standards Institute, Wayne, PA.” Serial two-fold dilutions of compounds are prepared in sterile clear roundbottom 96-well plates.
(§3) To prepare microdilution trays, two-fold dilutions of antimicrobial agent are prepared in growth medium: Cation-Adjusted Mueller-Hinton Broth (CAMHB), or CAMHB supplemented with sodium bicarbonate (6.25 or 25 mM final concentration prepared from a 1.0 M stock solution) or CAMHB supplemented with heat inactivated human serum (Fisher Cat. # BP2657100) 0-50% by adding 200 µL of the highest concentration to be tested (64 µg/mL, for example) in row A, mixing and transferring 100 µL from row A to 100 µL growth medium in row B, then repeating the mixing and transferring through row H of the 96-well plate, discarding the excess 100 µL remaining. This slight modification to the CLSI protocol enables evaluation of MICs for 3 compounds per plate in triplicate, albeit with only 8 compound dilutions (CLSI protocol enables 2 compounds in triplicate with 10 dilutions). Bacterial suspensions are added to a final concentration of 5 × 10^4 CFU/well by adding 5 µL of a 1:10 dilution of a 0.5 McFarland suspension (1 × 10^8 CFU/mL) for each bacterium evaluated. Bacterial suspensions were prepared using the growth method described by CLSI. Well-isolated colonies (3-5 from an agar plate) were selected using a sterile loop and used to inoculate a tube containing 4 mL of CAMHB. The cultures are incubated at 35 ± 2° C. until it achieves or exceeds the turbidity of the 0.5 McFarland standard, determined by measuring A600nm (usually two to six hours). When growth exceeds a 0.5 McFarland standard, the turbidity is adjusted with broth to be equivalent to a 0.5 McFarland standard.

[4] = test system: S.aureus (Sa); experiment: Broth microdilution MIC against S.aureus (Sa); assay type: cell-based; details: Staphylococcus aureus
Procedure: as §1, §2, §3

[5] = test system: E.coli (Ec); experiment: Broth microdilution MIC against E.coli (Ec); assay type: cell-based; details: Escherichia coli
Procedure: as §1, §2, §3

[6] = test system: A.baumannii (Ab); experiment: Broth microdilution MIC against A.baumannii (Ab); assay type: cell-based; details: Acinetobacter baumannii
Procedure: as §1, §2, §3

[7] = test system: E.faecalis (Ef); experiment: Broth microdilution MIC against E.faecalis (Ef); assay type: cell-based; details: Enterococcus faecalis
Procedure: as §1, §2, §3

[8] = CAMHB supplemented with sodium bicarbonate 25 mM, read-out: Pa +bicarb 25 (MIC)
[9] = read-out: Sa + bicarb 6.25 (MIC)
[10] = read-out: E. coli + bicarb 6.25 (MIC)
[11] = read-out: Pa +bicarb 6.25 (MIC)
[12] = read-out: Ab +bicarb 6.25 (MIC)
[13] = read-out: Ef +bicarb 6.25 (MIC)

CC(C)(N)C(=O)N1CCN(C(=O)Nc2ccn(-c3ccc4c(c3)CCC(N3C[C@@H]5[C@@H](CN)[C@@H]5C3)C4)c(=O)n2)CC1 (some centres unmarked) [Compound 3]
IC50 [1]: < 500 nM
IC50 [2]: ≥ 1000 nM

CC(C)(N)C(=O)N1CCN(C(=O)Nc2ccn(-c3ccc4c(c3)CCC(N3CC[C@@H](CN)C3)C4)c(=O)n2)CC1 (some centres unmarked) [Compound 4]
MIC [3, 8]: 8 to 32 µg/mL (≈ 14.9 to 59.6 µM)
IC50 [1]: < 500 nM
IC50 [2]: ≥ 1000 nM

CC(C)(N)C(=O)N1CCN(C(=O)Nc2ccn(-c3ccc4c(c3)CCC(N3CC[C@H](CN)C3)C4)c(=O)n2)CC1 (some centres unmarked) [Compound 5]
IC50 [1]: < 500 nM
IC50 [2]: ≥ 1000 nM

CC(C)(N)C(=O)N1CCN(C(=O)Nc2ccn(-c3ccc4c(c3)CCC(N[C@H]3CC[C@@H](N)CC3)C4)c(=O)n2)CC1 (some centres unmarked) [Compound 6]
MIC ([4]; CAMHB supplemented with sodium bicarbonate 25 mM, read-out: Sa + bicarb 25 (MIC)): < 8 µg/mL
MIC ([5]; CAMHB supplemented with sodium bicarbonate 25 mM, read-out: E.coli + bicarb 25 (MIC)): < 8 µg/mL
MIC [3, 8]: > 32 µg/mL
MIC ([6]; CAMHB supplemented with sodium bicarbonate 25 mM, read-out: Ab +bicarb 25 (MIC)): > 32 µg/mL
MIC ([7]; CAMHB supplemented with sodium bicarbonate 25 mM, read-out: Ef +bicarb 25 (MIC)): < 8 µg/mL
IC50 [1]: < 500 nM
IC50 [2]: ≥ 1000 nM

C[C@](N)(CO)C(=O)N1CCN(C(=O)Nc2ccn(-c3ccc4c(c3)CCC(N[C@H]3CC[C@H](N)C3)C4)c(=O)n2)CC1 (some centres unmarked) [Compound 24, Hydrochloride Salt]
MIC [4, 9]: > 32 µg/mL
MIC [5, 10]: < 8 µg/mL
MIC [3, 11]: > 32 µg/mL
MIC [6, 12]: > 32 µg/mL
MIC [7, 13]: > 32 µg/mL

CC(C)(N)C(=O)N1CCN(C(=O)Nc2ccn(-c3ccc4c(c3)CCC(N[C@H]3C[C@H](CN)C3)C4)c(=O)n2)CC1 (some centres unmarked) [Compound 41, Hydrochloride Salt]
MIC [4, 9]: 8 to 32 µg/mL
MIC [5, 10]: < 8 µg/mL
MIC [3, 11]: > 32 µg/mL
MIC [6, 12]: > 32 µg/mL
MIC [7, 13]: > 32 µg/mL

CC(C)(N)C(=O)N1CCN(C(=O)Nc2ccn(-c3ccc4c(c3)CCC(N[C@H]3C[C@@H](CN)C3)C4)c(=O)n2)CC1 (some centres unmarked) [Compound 44, Hydrochloride Salt]
MIC [4, 9]: > 32 µg/mL
MIC [5, 10]: 8 to 32 µg/mL
MIC [3, 11]: > 32 µg/mL
MIC [6, 12]: > 32 µg/mL
MIC [7, 13]: > 32 µg/mL
